biological target: dipeptidyl peptidase IV (Homo sapiens, UniProt P27487); assay: biochemical; details: values marked with "*" are ID50 values; read-out: IC50DPIV, values marked with "*" = ID50
Sequence (P27487 whole entry, species assumed): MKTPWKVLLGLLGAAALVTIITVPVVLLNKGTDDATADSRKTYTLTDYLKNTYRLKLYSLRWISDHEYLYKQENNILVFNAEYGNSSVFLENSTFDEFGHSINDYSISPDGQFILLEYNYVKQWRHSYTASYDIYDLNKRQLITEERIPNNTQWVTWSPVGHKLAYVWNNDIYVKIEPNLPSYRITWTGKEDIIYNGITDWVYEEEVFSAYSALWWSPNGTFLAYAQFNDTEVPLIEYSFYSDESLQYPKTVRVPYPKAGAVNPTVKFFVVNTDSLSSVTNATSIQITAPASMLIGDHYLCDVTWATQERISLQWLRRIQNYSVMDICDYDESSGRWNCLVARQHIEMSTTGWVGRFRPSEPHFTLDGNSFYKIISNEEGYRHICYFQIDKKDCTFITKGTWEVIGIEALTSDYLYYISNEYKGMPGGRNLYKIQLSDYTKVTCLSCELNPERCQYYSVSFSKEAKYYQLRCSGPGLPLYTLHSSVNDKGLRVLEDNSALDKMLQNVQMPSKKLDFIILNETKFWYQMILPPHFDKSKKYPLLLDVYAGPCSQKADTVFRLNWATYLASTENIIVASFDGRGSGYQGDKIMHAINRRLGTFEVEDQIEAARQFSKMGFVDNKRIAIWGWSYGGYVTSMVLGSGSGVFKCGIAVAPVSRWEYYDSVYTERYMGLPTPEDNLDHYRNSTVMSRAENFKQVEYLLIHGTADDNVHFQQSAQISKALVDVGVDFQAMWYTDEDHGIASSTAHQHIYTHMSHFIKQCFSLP

Row | IC50 [µM] | SMILES
1 | 1.2 | CCC(O)(CC)C(=O)NNc1ccc(C)cc1C [D14.001]
2 | 456 | CCC(O)(CC)C(=O)NN(C(=O)CNS(=O)(=O)c1ccc(C)cc1)c1ccccc1 [D14.007]
3 | 2.9 | COc1ccc(N(C(C)C(=O)N/N=C/c2ccc(Cl)cc2Cl)S(C)(=O)=O)cc1 (stereo not shown) [D10.003]
4 | 498 | CSc1ccc(/C=N/NC(=O)c2cccs2)cc1 [D10.141]
5 | 127 | O=C(COc1ccccc1C(=O)N/N=C\c1ccc(O)c(O)c1)N/N=C/c1ccc(O)c(O)c1 [D10.113]
6 | 252 | O=C(CC1(O)OC(c2ccccc2)=CC1=O)c1ccccc1 (stereo not shown) [D6.122]
7 | 432 | COc1ccc(S(=O)(=O)N(CC(=O)N/N=C/c2ccc(C(C)C)cc2)c2cc(Cl)ccc2OC)cc1OC [D10.139]
8 | 527 | Cc1ccc(N2C(=O)C3CC(c4ccccc4)=C4C5C=CC(C6C(=O)N(c7ccc(C)cc7C)C(=O)C56)C4C3C2=O)c(C)c1 (stereo not shown) [D3.119]
9 | 166 | Cc1cc(Cl)ccc1OC(C)C(=O)N/N=C1/C(=O)Nc2ccc([N+](=O)[O-])cc21 (stereo not shown) [D10.118]
10 | 268 | CC(=O)Oc1ccc(-n2c(=O)c3ccccc3c3ccccc3c2=O)cc1 [D3.107]
11 | 332 | O=C1c2sc3nnc(-c4ccccc4)c(=O)n3c2C(=O)N1c1ccccc1 [D3.114]
12 | 314 | Nc1nonc1-n1nnc(C(=O)N/N=C/c2ccccc2Br)c1-c1ccc([N+](=O)[O-])cc1 [D10.135]
13 | 255 | CCCc1c(C)nc(N)c(C#N)c1-c1ccccc1 [D4.104]
14 | 225 | CCCN(CCC)c1ccc(/C=N/NC(=O)COc2ccc(C)cc2[N+](=O)[O-])cc1 [D10.124]
15 | 458 | COc1cccc(/C=N/NC(=O)c2ccc(OCc3cccc(Br)c3)cc2)c1OC [D10.140]
16 | 3.8 | COc1cc(OC)cc(N2C(=O)CSCC2=O)c1 [D4.005]
17 | 165 | CCn1c2ccccc2c2ccc(/C=N/NC(=O)c3ccc([N+](=O)[O-])cc3)cc21 [D7.001]
18 | 456 | N#C/C(=C\c1ccc(N2Cc3ccccc3C2)cc1)C(=O)NCc1ccco1 [D4.118]
19 | 394 | N#C/C(=C\c1ccc(-c2ccc(Cl)cc2)o1)C(=O)Nc1cccc([N+](=O)[O-])c1 [D4.114]

Row | SMILES | IC50 [µM]
20 | O=C(N/N=C/c1ccccc1O)c1cc(-c2ccc3ccccc3c2)n[nH]1 [D10.130] | 255
21 | O=C(Nc1cccc(/N=C/c2cc(/N=N\c3ccccc3Cl)ccc2O)c1)c1ccco1 [D6.003] | 2.5

same assay, conditions: values without "*" = IC-50; read-out: IC50DPIV

Row | IC50 [µM] | SMILES
22 | 20 | Cc1cc(Nc2ccc(N3C(=O)CCCC3=O)cc2[N+](=O)[O-])no1 [D4.025]
23 | 34.1 | O=C1NCCCCC1Nc1ccc(N2C(=O)CCCC2=O)cc1[N+](=O)[O-] (stereo not shown) [D1.003]
24 | 34.2 | COc1ccc(/C=N/N=C2\NC(=O)C(Cc3cccc(C(F)(F)F)c3)S2)cc1 (stereo not shown) [D10.058]
25 | 94.5 | O=C1CSCC(=O)N1c1ccc(F)cc1 [D4.086]
26 | 23.3 | COCC(=O)CC(N)c1ccc(C)cc1 (stereo not shown) [D13.002]
27 | 31.4 | COc1cc2c(cc1OC)C1(CCCC1)CN(CC#N)C2 [D3.039]
28 | 18.2 | CC(=O)Oc1cccc(N2C(=O)c3ccc(C(=O)NCc4ccc(C(=O)O)cc4)cc3C2=O)c1 [D4.023]
29 | 10.1 | Nc1nonc1-n1nnc(C(=O)NN=C2c3ccccc3-c3ccccc32)c1-c1ccccc1 [D13.001]
30 | 46.7 | Cc1cccc(C(=O)N/N=C/c2c(O)ccc3ccccc23)c1 [D10.072]
31 | 43.1 | O=C1NC23NC(=O)NC2(N1)c1ccccc1-c1ccccc13 (stereo not shown) [D3.057]
32 | 31.9 | O=C(COc1cccc(Cl)c1)N/N=C/c1ccc(O)c([N+](=O)[O-])c1 [D10.049]
33 | 20.2 | CCSc1nnc2n(-c3ccc(OC)cc3)c(=O)c3c4c(sc3n12)CCCC4 [D6.031]
34 | 138 | Cc1cc(-c2ccc(/C=C(\C#N)c3nc4ccccc4[nH]3)o2)ccc1[N+](=O)[O-] [D3.096]
35 | 32.9 | COc1ccc(/C(C)=N/NC(=O)CNc2ccc3ccccc3c2)cc1OC [D10.053]
36 | 10.8 | CCSc1nnc2n(-c3ccc(OC)cc3)c(=O)c3c4c(sc3n12)CCCC4 [D3.013]
37 | 46 | Cc1nc2c(sc(=S)n2C)c(=O)[nH]1 [D3.061]
38 | 56.3 | CCOc1ccc(/C=N/NC(=O)c2cc(-c3c(OC)ccc4ccccc34)n[nH]2)cc1 [D6.081]
39 | 15.2 | CCOC(=O)CC(N)c1cccs1 (stereo not shown) [D6.018]
40 | 18.9 | COc1cc(/C=N/NC(=O)COc2ccc(C(C)(C)CC(C)(C)C)cc2)cc([N+](=O)[O-])c1O [D10.033]
41 | 33 | N#Cc1c(NC(=O)c2ccccc2)sc2c1CCCCC2 [D3.042]
42 | 36.8 | CCOCCCNc1ccc(N2C(=O)CCCC2=O)cc1[N+](=O)[O-] [D4.048]
43 | 33.9 | CN(C)c1ccc(/C=C(\NC(=O)c2ccccc2)C(=O)N/N=C/c2cc(/N=N/c3ccccc3)ccc2O)cc1 [D10.051]
44 | 65.6 | CC(=O)Oc1cccc(N2C(=O)C3C(C2=O)C2(C)C=CC3(C)O2)c1 (stereo not shown) [D4.073]
45 | 43.1 | O=C1NC23NC(=O)NC2(N1)c1ccccc1-c1ccccc13 (stereo not shown) [D4.053]
46 | 21 | NS(=O)(=O)c1ccc(N2C(=O)CCCC2=O)cc1 [D4.030]
47 | 20.9 | O=C(N/N=C/c1ccc([N+](=O)[O-])o1)c1ccccc1I [D10.040]
48 | 24.1 | O=C(N/N=C/c1cc(Br)ccc1OC(=O)c1ccco1)/C(=C\c1cccs1)NC(=O)c1ccccc1 [D10.042]
49 | 10.1 | Nc1nonc1-n1nnc(C(=O)NN=C2c3ccccc3-c3ccccc32)c1-c1ccccc1 [D3.011]

Row | IC50 [µM] | SMILES
50 | 59.2 | CC(=O)Oc1cc2oc(=O)cc(C)c2cc1OC(C)=O [D3.078]
51 | 24.2 | O=C(N/N=C\c1cccc(OC(=O)c2ccc([N+](=O)[O-])cc2)c1)/C(=C/c1ccc2c(c1)OCO2)NC(=O)c1ccccc1 [D10.043]
52 | 48.3 | CC1C(=O)N(Cc2ccccc2)C(=O)c2c1nc(N1CCNCC1)n2Cc1ccccc1 (stereo not shown) [D6.069]
53 | 18.2 | O=C(CNc1ccc2ccccc2c1)N/N=C1/C(=O)Nc2ccc([N+](=O)[O-])cc21 [D10.032]
54 | 19.1 | CCOc1cc(/C=N/NC(=O)c2cc(O)c(O)c(O)c2)ccc1O [D10.034]
55 | 54.5 | CCOC(=O)c1n[nH]c2c1C(=O)N(c1ccc([N+](=O)[O-])cc1)C2=O [D2.005]
56 | 70.1 | COc1ccccc1C1NCC(c2ccc([N+](=O)[O-])cc2)O1 (stereo not shown) [D4.077]
57 | 30.9 | N#Cc1c(CC(=O)C(C(F)(F)F)C(F)(F)F)sc2c1CCC2 [D6.047]
58 | 14.1 | C/C(=N/OC(=O)C(C)(C)C)c1cc2ccccc2oc1=O [D11.004]
59 | 7.6 | CN(C)c1ccc(/C=N\NC(=O)c2cc(N)ccc2O)cc1 [D10.008]
60 | 58.7 | COc1cc(/C=N/NC(=O)c2ccccc2OC(C)C)ccc1O [D10.087]
61 | 113 | COc1ccc(OCC(=O)N/N=C/c2c(Br)cc(Br)c(O)c2Br)cc1 [D10.109]
62 | 6.9 | N#CC1=C(N)C(C#N)(C#N)C(c2ccccc2)C2CNCC=C12 (stereo not shown) [D4.007]
63 | 15.2 | CCCC(=O)O/N=C1/C(=O)N(c2ccccc2)c2ccccc21 [D11.006]
64 | 57 | NC(=O)C1CCN(c2ccc(N3C(=O)CCCC3=O)cc2[N+](=O)[O-])CC1 [D4.070]
65 | 5.7 | CCC(O)(CC)C(=O)NNc1ccccc1C [D14.003]
66 | 52.3 | N#CC1=C(N)C(C#N)(C#N)C(c2ccccc2)C2CNCC=C12 (stereo not shown) [D3.035]
67 | 46.5 | Cc1ccc(C(=O)N/C(=C\c2ccco2)C(C)N2CCOCC2)cc1C (stereo not shown) [D6.067]
68 | 56.3 | CCOc1ccc(/C=N/NC(=O)c2cc(-c3c(OC)ccc4ccccc34)n[nH]2)cc1 [D10.083]
69 | 19.2 | CCn1c(N2CCN(c3ccc(OC)cc3)CC2)nc2c1c(=O)[nH]c(=O)n2C [D6.028]
70 | 54.8 | O=C1CCCC(=O)N1c1ccc(NCCc2ccc(O)cc2)c([N+](=O)[O-])c1 [D5.037]
71 | 33.4 | O=C1/C(=N\NC(=S)Nc2ccccc2F)c2cc(S(=O)(=O)N3CCOCC3)ccc2N1Cc1ccc(Cl)cc1 [D2.004]
72 | 20.3 | O=C(Cn1nnc(-c2ccc(F)cc2)n1)N/N=C/c1ccc(-c2ccc3c(c2)COC3=O)o1 [D10.036]
73 | 38.2 | O=C(Nc1c[nH]c(=O)[nH]c1=O)c1ccc2c(c1)C(=O)N(c1ccc(C(=O)c3ccccc3)cc1)C2=O [D12.016]
74 | 14.4 | O=C(Nc1ccc(O)c(-c2nc3ccccc3s2)c1)c1ccc([N+](=O)[O-])o1 [D3.018]
75 | 32.8 | Cc1csc(/C(=N\OC(=O)c2ccco2)C(N)=O)n1 [D11.009]
76 | 66.6 | O=C1C(N2CCOCC2)=C(Cl)/C(=N/S(=O)(=O)c2ccc(Cl)cc2)C(Cl)(Cl)C1(Cl)Cl [D4.075]

Row | SMILES | IC50 [µM]
77 | CN(/N=C/c1sc(=O)[nH]c1Cl)c1ccccc1 [D6.049] | 32.4
78 | O=C(NNC1=C(Cl)C(=O)C(Cl)(Cl)C1=O)c1ccccc1 [D14.004] | 26.2
79 | O=C(COc1cccc([N+](=O)[O-])c1)N/N=C/c1ccc(O)c([N+](=O)[O-])c1 [D10.044] | 24.4
80 | CCOC(=O)c1c(C)oc2c1c1c(c3ccccc32)OCN(C2CCS(=O)(=O)C2)C1 (stereo not shown) [D4.045] | 34.2
81 | Cc1ccc(C(=O)N/C(=C/c2ccco2)C(=O)N(C)C)cc1 [D12.038] | 47.7
82 | CCOC(=O)c1cc(-c2ccc(/C=C3/C(=O)NC(=O)C(C#N)=C3C)o2)ccc1Cl [D4.069] | 56.7
83 | CCOC(=O)c1c(C)oc2c1c1c(c3ccccc32)OCN(C2CCS(=O)(=O)C2)C1 (stereo not shown) [D12.017] | 34.2
84 | CC1CCN(C(=O)/C(=C\c2ccco2)NC(=O)c2ccc(Cl)cc2)CC1 [D6.027] | 18.5
85 | C=CCOC(=O)c1cc(-c2ccc(/C=C3/C(=O)N(CCCO)C(=O)C(C#N)=C3C)o2)ccc1Cl [D4.054] | 44.6
86 | Cc1ccc(S(=O)(=O)CNC(=S)c2ccc3ccccc3c2)cc1 [D3.019] | 14.5
87 | COC(=O)C1=C(N)N2C(=O)CSC2=C(C(=O)OC)C1 [D3.008] | 34.1
88 | CC1=C(C#N)C(=O)N=C(O)/C1=C\c1ccc(-c2ccc(Cl)cc2Cl)o1 [D4.087] | 95.8
89 | CC1=C(C#N)C(=O)N(CCO)C(=O)/C1=C\c1ccc(-c2cc(Cl)ccc2Cl)o1 [D6.071] | 51.7
90 | CCCOC(=O)c1cc(-c2ccc(/C=C3/C(=O)N(CC(C)O)C(=O)C(C#N)=C3C)o2)ccc1Cl (stereo not shown) [D4.083] | 82.2
91 | COc1cc(Br)ccc1OCC(=O)N/N=C/c1cc(O)c(O)c(Br)c1Br [D10.013] | 10.2

Reference: US20070037785A1, “Novel dipeptidyl peptidase IV inhibitors used for functionally influencing different cells and treating immunological, infammatory, neuronal, and other diseases” (priority 2003, published 2007)
